Assay results: DBAASP
≈ marks a conversion by molar mass, not a printed value.

How the values were obtained:
Assay in all cases: ≥ marks a high value that may be exact or a test limit, other limits are often not marked, values filed in µg/mL are converted to µM
Candida albicans = tested on: Candida albicans
[1] = tested on: Enterococcus faecalis ATCC 29212
Escherichia coli UB1005 = tested on: Escherichia coli UB1005
[2] = tested on: Pseudomonas aeruginosa H103
[3] = tested on: Salmonella enterica serovar Typhimurium
[4] = tested on: Staphylococcus aureus ATCC 25923
[5] = tested on: Staphylococcus epidermidis
Bacillus subtilis 168 = tested on: Bacillus subtilis 168
Escherichia coli K-12 = tested on: Escherichia coli K-12
[6] = tested on: Pseudomonas aeruginosa PAO1
[7] = tested on: Staphylococcus aureus USA 300
[8] = tested on: Acinetobacter baumannii ATCC 19606
[9] = tested on: Bacillus subtilis ATCC 23857
[10] = tested on: Escherichia coli ATCC 25922
[11] = tested on: Klebsiella pneumoniae ATCC 700603
[12] = tested on: Pseudomonas aeruginosa ATCC 27853
[13] = tested on: Staphylococcus epidermidis ATCC 12228
[14] = tested on: Pseudomonas aeruginosa ATCC 9027

SMILES	MIC (Candida albicans) [µM]	MIC [1] [µM]	MIC (Escherichia coli UB1005) [µM]	MIC [2] [µM]	MIC [3] [µM]	MIC [4] [µM]	MIC [5] [µM]	MIC [9] [µM]	MIC [10] [µM]	MIC [11] [µM]	also measured
CC[C@H](C)[C@H](NC(=O)[C@H](CCCCN)NC(=O)[C@H](Cc1c[nH]c2ccccc12)NC(=O)[C@H](CCCCN)NC(=O)[C@@H](N)Cc1ccc(O)cc1)C(=O)N[C@@H](CCCN=C(N)N)C(=O)N[C@@H](Cc1ccccc1)C(=O)N[C@@H](CCCCN)C(=O)N[C@@H](CCCN=C(N)N)C(=O)O [YKWKIRFKR]	16.3 (≈ 21.6 µg/mL)	16.3 (≈ 21.6 µg/mL)	4.1 (≈ 5.43 µg/mL)	≥ 32.6	8.2 (≈ 10.9 µg/mL)	4.1 (≈ 5.43 µg/mL)	1 (≈ 1.32 µg/mL)				
CC(C)C[C@H](NC(=O)[C@H](CC(C)C)NC(=O)[C@H](CCCCN)NC(=O)[C@@H]1CCCN1C(=O)[C@H](CC(C)C)NC(=O)[C@H](CC(C)C)NC(=O)[C@H](CCCCN)NC(=O)[C@H](CC(C)C)NC(=O)[C@H](CC(C)C)NC(=O)[C@H](CO)NC(=O)CNC(=O)[C@H](Cc1ccccc1)NC(=O)[C@@H](N)Cc1ccccc1)C(N)=O [FFGSLLKLLPKLL]											MIC (Bacillus subtilis 168): 3.12 µM (≈ 4.64 µg/mL); MIC (Escherichia coli K-12): 12.5 µM (≈ 18.6 µg/mL); MIC [6]: 70.7 µM (≈ 105 µg/mL); MIC [7]: 1.1 µM (≈ 1.64 µg/mL)
CC(C)C[C@H](NC(=O)[C@H](CC(C)C)NC(=O)[C@H](CCCCN)NC(=O)[C@@H]1CCCN1C(=O)[C@H](CC(C)C)NC(=O)[C@H](CC(C)C)NC(=O)[C@H](CCCCN)NC(=O)[C@H](CC(C)C)NC(=O)[C@H](CC(C)C)NC(=O)[C@H](CO)NC(=O)CNC(=O)[C@H](CC(C)C)NC(=O)[C@@H](N)CC(C)C)C(N)=O [LLGSLLKLLPKLL]											MIC (Bacillus subtilis 168): 3.12 µM (≈ 4.43 µg/mL); MIC (Escherichia coli K-12): 12.5 µM (≈ 17.7 µg/mL); MIC [6]: > 100 µM; MIC [7]: 1.1 µM (≈ 1.57 µg/mL)
CC[C@H](C)[C@H](N)C(=O)N[C@@H](Cc1c[nH]c2ccccc12)C(=O)N[C@@H](CC(C)C)C(=O)N[C@H](C(=O)N[C@@H](C)C(=O)N[C@@H](CC(C)C)C(=O)N[C@@H](CCCCN)C(=O)N[C@@H](Cc1ccccc1)C(=O)N[C@@H](CC(C)C)C(=O)NCC(=O)N[C@@H](CCCCN)C(=O)N[C@@H](Cc1cnc[nH]1)C(=O)N[C@@H](C)C(=O)N[C@@H](C)C(=O)N[C@@H](CCCCN)C(=O)N[C@@H](Cc1cnc[nH]1)C(=O)N[C@@H](CC(C)C)C(=O)N[C@@H](C)C(=O)N[C@@H](CCCCN)C(=O)N[C@@H](CCC(N)=O)C(=O)N[C@@H](CCC(N)=O)C(=O)N[C@@H](CC(C)C)C(=O)N[C@@H](CO)C(=O)N[C@@H](CCCCN)C(=O)N[C@@H](CC(C)C)C(=O)O)[C@@H](C)O [IWLTALKFLGKHAAKHLAKQQLSKL]											MIC (Bacillus subtilis 168): 6.25 µM (≈ 17.8 µg/mL); MIC (Escherichia coli K-12): 25 µM (≈ 71.1 µg/mL); MIC [6]: 25 µM (≈ 71.1 µg/mL); MIC [7]: 3.1 µM (≈ 8.82 µg/mL)
CC[C@H](C)[C@H](N)C(=O)N[C@@H](CC(C)C)C(=O)N[C@@H](CCCN=C(N)N)C(=O)N[C@@H](Cc1c[nH]c2ccccc12)C(=O)N[C@@H](CCCCN)C(=O)N[C@@H](Cc1c[nH]c2ccccc12)C(=O)N[C@@H](CCCN=C(N)N)C(=O)N[C@@H](Cc1c[nH]c2ccccc12)C(=O)N[C@@H](Cc1c[nH]c2ccccc12)C(=O)N[C@@H](CCCN=C(N)N)C(=O)N[C@@H](Cc1c[nH]c2ccccc12)C(=O)N[C@@H](CCCN=C(N)N)C(=O)N[C@@H](CCCN=C(N)N)C(=O)O [ILRWKWRWWRWRR]	5.7 (≈ 11.9 µg/mL)	2.9 (≈ 6.05 µg/mL)	1.4 (≈ 2.92 µg/mL)	5.7 (≈ 11.9 µg/mL)	2.9 (≈ 6.05 µg/mL)	0.7 (≈ 1.46 µg/mL)	0.7 (≈ 1.46 µg/mL)				
NCCCC[C@H](NC(=O)[C@H](Cc1ccccc1)NC(=O)[C@H](CCCN=C(N)N)NC(=O)[C@H](CCCCN)NC(=O)[C@H](CCCCN)NC(=O)[C@H](CCCN=C(N)N)NC(=O)[C@@H](N)CCCCN)C(=O)N[C@@H](Cc1c[nH]c2ccccc12)C(=O)N[C@@H](Cc1c[nH]c2ccccc12)C(=O)O [KRKKRFKWW]	41.2 (≈ 56.1 µg/mL)	10.3 (≈ 14 µg/mL)	20.6 (≈ 28.1 µg/mL)	≥ 115	20.6 (≈ 28.1 µg/mL)	2.6 (≈ 3.54 µg/mL)	2.6 (≈ 3.54 µg/mL)				
CC(C)C[C@H](NC(=O)[C@H](Cc1ccccc1)NC(=O)CN)C(=O)N[C@@H](CCCCN)C(=O)N[C@@H](CCCN=C(N)N)C(=O)N[C@@H](Cc1ccccc1)C(=O)N[C@@H](CCCCN)C(=O)N[C@H](C(=O)N[C@@H](CC(C)C)C(=O)N[C@@H](Cc1ccccc1)C(N)=O)[C@@H](C)O [GFLKRFKTLF]		128 (≈ 161 µg/mL)				64 (≈ 80.4 µg/mL)		≥ 64	64 (≈ 80.4 µg/mL)	128 (≈ 161 µg/mL)	MIC [8]: 128 µM (≈ 161 µg/mL); MIC [12]: 8 µM (≈ 10 µg/mL); MIC [13]: 8 µM (≈ 10 µg/mL)
CC(C)C[C@H](NC(=O)[C@H](CC(C)C)NC(=O)[C@@H](NC(=O)[C@H](CCCCN)NC(=O)[C@H](Cc1c[nH]c2ccccc12)NC(=O)[C@H](CCCN=C(N)N)NC(=O)[C@H](CCCCN)NC(=O)[C@H](CC(C)C)NC(=O)[C@H](CC(C)C)NC(=O)CN)[C@@H](C)O)C(N)=O [GLLKRWKTLL]		256 (≈ 314 µg/mL)				128 (≈ 157 µg/mL)		≥ 128	64 (≈ 78.5 µg/mL)	64 (≈ 78.5 µg/mL)	MIC [8]: 256 µM (≈ 314 µg/mL); MIC [12]: 4 µM (≈ 4.91 µg/mL); MIC [13]: 16 µM (≈ 19.6 µg/mL)

The next lines start with results.

MIC (Candida albicans) [µM]	MIC [1] [µM]	MIC (Escherichia coli UB1005) [µM]	MIC [2] [µM]	MIC [3] [µM]	MIC [4] [µM]	MIC [5] [µM]	MIC [9] [µM]	MIC [10] [µM]	MIC [11] [µM]	SMILES	also measured
94.5 (≈ 125 µg/mL)	23.4 (≈ 31 µg/mL)	12.1 (≈ 16 µg/mL)	≥ 94.5	≥ 47.6	47.6 (≈ 63 µg/mL)	12.1 (≈ 16 µg/mL)				CC[C@H](C)[C@H](NC(=O)[C@H](CCCN=C(N)N)NC(=O)[C@H](C)NC(=O)[C@H](CC(C)C)NC(=O)CN)C(=O)N[C@H](C(=O)N[C@H](C(=O)N[C@H](C(=O)N[C@@H](CCCN=C(N)N)C(=O)N[C@H](C(=O)N[C@@H](C)C(=O)N[C@@H](CCCN=C(N)N)C(N)=O)C(C)C)[C@@H](C)CC)C(C)C)C(C)C [GLARIVVIRVAR]	
	> 512				> 512		≥ 512	> 512	> 512	CC(C)C[C@H](NC(=O)[C@H](C)NC(=O)[C@@H](NC(=O)[C@H](CCCCN)NC(=O)[C@H](C)NC(=O)[C@H](CCCN=C(N)N)NC(=O)[C@H](CCCCN)NC(=O)[C@H](C)NC(=O)[C@H](C)NC(=O)CN)[C@@H](C)O)C(N)=O [GAAKRAKTAL]	MIC [8]: > 512 µM; MIC [12]: > 512 µM; MIC [13]: > 512 µM
4.22 (≈ 6 µg/mL)		7.74 (≈ 11 µg/mL)	16.2 (≈ 23 µg/mL)	7.74 (≈ 11 µg/mL)	16.2 (≈ 23 µg/mL)	4.22 (≈ 6 µg/mL)				CC[C@H](C)[C@H](NC(=O)[C@@H](NC(=O)[C@H](C)NC(=O)[C@@H](NC(=O)[C@H](C)NC(=O)[C@@H](N)CCCN=C(N)N)C(C)C)C(C)C)C(=O)N[C@H](C(=O)N[C@@H](CCCN=C(N)N)C(=O)N[C@@H](CC(C)C)C(=O)N[C@@H](CCCN=C(N)N)C(=O)N[C@@H](CCCN=C(N)N)C(=O)N[C@H](C(N)=O)C(C)C)[C@@H](C)CC [RAVAVIIRLRRV]	
95.7 (≈ 136 µg/mL)		≥ 95.7	≥ 176	≥ 95.7	176 (≈ 250 µg/mL)	≥ 95.7				CC[C@H](C)[C@H](NC(=O)[C@H](CCCN=C(N)N)NC(=O)[C@H](CCCN=C(N)N)NC(=O)[C@H](CCCN=C(N)N)NC(=O)[C@H](CCCN=C(N)N)NC(=O)[C@@H](NC(=O)[C@@H](N)C(C)C)[C@@H](C)CC)C(=O)N[C@@H](CC(C)C)C(=O)N[C@@H](C)C(=O)N[C@@H](C)C(=O)N[C@H](C(=O)N[C@H](C(N)=O)C(C)C)C(C)C [VIRRRRILAAVV]	
					8 (≈ 12.5 µg/mL)		2 (≈ 3.13 µg/mL)	4 (≈ 6.26 µg/mL)	4 (≈ 6.26 µg/mL)	CC[C@H](C)[C@H](NC(=O)[C@H](CCCCN)NC(=O)[C@H](CCCCN)NC(=O)[C@H](C)NC(=O)[C@@H](NC(=O)[C@H](C)NC(=O)[C@H](CC(C)C)NC(=O)[C@H](CC(C)C)NC(=O)[C@H](CCCCN)NC(=O)[C@H](CCCCN)NC(=O)[C@H](CC(C)C)NC(=O)[C@H](CC(N)=O)NC(=O)[C@@H](N)CC(C)C)C(C)C)C(=O)N[C@@H](CC(C)C)C(N)=O [LNLKKLLAVAKKIL]	MIC [14]: 4 µM (≈ 6.26 µg/mL)
					4 (≈ 5.8 µg/mL)		16 (≈ 23.2 µg/mL)	8 (≈ 11.6 µg/mL)	32 (≈ 46.4 µg/mL)	CC[C@H](C)[C@H](NC(=O)[C@H](CCCCN)NC(=O)[C@H](C)NC(=O)[C@H](C)NC(=O)[C@@H](NC(=O)[C@H](C)NC(=O)[C@H](CC(C)C)NC(=O)[C@H](CC(C)C)NC(=O)[C@H](C)NC(=O)[C@H](CCCCN)NC(=O)[C@H](CC(C)C)NC(=O)[C@H](CC(N)=O)NC(=O)[C@@H](N)CC(C)C)C(C)C)C(=O)N[C@@H](CC(C)C)C(N)=O [LNLKALLAVAAKIL]	MIC [14]: 32 µM (≈ 46.4 µg/mL)
							16 (≈ 19.3 µg/mL)	> 128		CC[C@H](C)[C@H](NC(=O)CN)C(=O)N[C@H](C(=O)N[C@@H](C)C(=O)NCC(=O)N[C@H](C(=O)N[C@H](C(=O)N[C@@H](CCCCN)C(=O)N[C@H](C(=O)N[C@H](C(=O)N[C@@H](CCCCN)C(=O)N[C@@H](C)C(N)=O)[C@@H](C)CC)[C@@H](C)CC)[C@@H](C)CC)[C@@H](C)CC)[C@@H](C)CC [GIIAGIIKIIKA]	
